We go through 1 compound from ChEMBL document CHEMBL5108059, “Discovery of 2-Methyl-2-(4-(2-methyl-8-(1H-pyrrolo[2,3-b]pyridin-6-yl)-1H-naphtho[1,2-d]imidazol-1-yl)phenyl)propanenitrile as a Novel PI3K/mTOR Inhibitor with Enhanced Antitumor Efficacy In Vitro and In Vivo” (J Med Chem, 2022).

The AUC is the area under the concentration-time curve, a measure of exposure. High values mean high exposure, low ones low exposure. The term bioavailability denotes dose-corrected exposure relative to a reference, in per cent. A word on the IC50: it is the point on the concentration scale where inhibition reaches its midpoint.

Molecules are shown by their SMILES. Calls of active or inactive are those of the source. The rule behind the calls is not given here.

Data set [1] relates to HeLa. In words: Antitumor activity against human HeLa cells xenografted in BALB/c nude mouse assessed as tumor growth inhibition at 60 mg/kg, IG administered daily for 30 days and measured every 2 days relative to control. Conditions: po, 720 h, time 30 day, read-out: TGI. Format: functional. (A xenograft is tissue or cells of one species grown in another, often human tumour cells in immunodeficient mice.)

Data set [2] concerns HeLa. In words: Antitumor activity against human HeLa cells xenografted in BALB/c nude mouse assessed as tumor growth inhibition at 30 mg/kg, IG administered daily for 30 days and measured every 2 days relative to control. Format: functional. Conditions: po, 720 h, time 30 day, read-out: TGI.
For data set [3], the system named is HeLa. Kind of data set: Induction of apoptosis in human HeLa cells assessed as viable cells at 0.15625 uM incubated for 36 hrs by Annexin V-FITC/PI staining based flow cytometric analysis (reference value: 96.14 %). Conditions: read-out: Activity. The format is functional.
Data set [4] in a line: AUC (0 to infinity) in Sprague-Dawley rat at 10 mg/kg, po measured for 24 hrs by LC-MS/MS analysis. Format: ADME, organism-based. Details: time 24 hrs, dose 10 mg/kg, route po. Conditions: in vivo.
For a further data set, the system named is Mus musculus. Kind of data set: In vivo inhibition of PI3K/mTOR signalling pathway in BALB/c nude mouse xenografted with human HeLa cells assessed as downregulation of pS6 protein expression in tumor at 15 to 60 mg/kg, IG administered daily for 30 days. The conditions noted are these: dose 15-60 mg/kg, time 30.0 day. The format is functional, organism-based.

The nature of data set [5]: Toxicity in BALB/c nude mouse xenografted with human HeLa cells assessed as pathological changes in liver at 60 mg/kg, IG administered daily for 30 days by hematoxylin and eosin staining based microscopic analysis. The format is organism-based. Conditions: in vivo, po, 720 h, time 30 day.
The next data set has as its system L02. Kind of data set: Cytotoxicity against human L02 cells assessed as reduction in cell viability at 0.3125 to 10 uM incubated for 48 to 72 hrs by MTT assay. The format is toxicity, cell-based. The conditions noted are these: l02, 10 µM, dose lower 0.3125 µM, time lower 48 hrs, dose upper 10 µM, time upper 72 hrs.
The test system of a further data set is SW-620. In words: Antitumor activity against human SW620 cells xenografted in BALB/c nude mouse assessed as tumor growth inhibition at 15 mg/kg, IG administered daily for 30 days and measured every 2 days relative to control. Format: functional. Conditions: SW-620, po, 720 h, time 30 day, read-out: TGI.
Data set [6] in a line: Oral bioavailability in Sprague-Dawley rat at 10 mg/kg measured for 24 hrs by LC-MS/MS analysis. The conditions noted are these: in vivo. Format: ADME, organism-based.
Data set [7] has as its target Phosphatidylinositol 4,5-bisphosphate 3-kinase catalytic subunit gamma isoform (Homo sapiens, UniProt P48736). Kind of data set: Inhibition of PI3Kgamma (unknown origin) using PIP2 as substrate incubated for 2 hrs in presence of ATP by Kinase Glo luminescence assay. In general terms: Kinase-Glo reads ATP consumption through a luciferase reaction.
Data set [8] deals with HeLa. Kind of data set: Induction of apoptosis in human HeLa cells assessed as early apoptotic cells at 0.625 uM incubated for 36 hrs by Annexin V-FITC/PI staining based flow cytometric analysis (reference value: 2.02 %). The format is functional. On the technique in general: Flow cytometry measures light scatter and fluorescence of single cells or particles in a stream.

For data set [9], the system named is HeLa. In words: Induction of apoptosis in human HeLa cells assessed as late apoptotic cells at 0.15625 uM incubated for 36 hrs by Annexin V-FITC/PI staining based flow cytometric analysis (reference value: 1.4 %). The conditions noted are these: 0.1562 µM. Format: functional.
Data set [10] concerns HeLa. In words: Inhibition of PI3K/mTOR signalling pathway in human HeLa cells assessed as inhibition of Akt phosphorylation at Ser473 residue incubated for 24 hrs by Western blot analysis. Conditions: dose 0.3125-2.5 µM, DDE = dose-dependent effect. The format is cell-based.
Data set [11] relates to HeLa. Kind of data set: Induction of apoptosis in human HeLa cells assessed as dead cells at 0.625 uM incubated for 36 hrs by Annexin V-FITC/PI staining based flow cytometric analysis (reference value: 0.44 %). Format: functional.
Data set [12] concerns HeLa. In words: Inhibition of PI3K/mTOR signalling pathway in human HeLa cells assessed as inhibition of Akt phosphorylation at Thr308 residue incubated for 24 hrs by Western blot analysis. Format: cell-based. The conditions noted are these: dose 0.3125-2.5 µM, DDE = dose-dependent effect.
Data set [13] deals with T1, Phosphatidylinositol 4,5-bisphosphate 3-kinase catalytic subunit delta isoform (Homo sapiens, UniProt O00329).
T1 sequence (O00329 whole entry): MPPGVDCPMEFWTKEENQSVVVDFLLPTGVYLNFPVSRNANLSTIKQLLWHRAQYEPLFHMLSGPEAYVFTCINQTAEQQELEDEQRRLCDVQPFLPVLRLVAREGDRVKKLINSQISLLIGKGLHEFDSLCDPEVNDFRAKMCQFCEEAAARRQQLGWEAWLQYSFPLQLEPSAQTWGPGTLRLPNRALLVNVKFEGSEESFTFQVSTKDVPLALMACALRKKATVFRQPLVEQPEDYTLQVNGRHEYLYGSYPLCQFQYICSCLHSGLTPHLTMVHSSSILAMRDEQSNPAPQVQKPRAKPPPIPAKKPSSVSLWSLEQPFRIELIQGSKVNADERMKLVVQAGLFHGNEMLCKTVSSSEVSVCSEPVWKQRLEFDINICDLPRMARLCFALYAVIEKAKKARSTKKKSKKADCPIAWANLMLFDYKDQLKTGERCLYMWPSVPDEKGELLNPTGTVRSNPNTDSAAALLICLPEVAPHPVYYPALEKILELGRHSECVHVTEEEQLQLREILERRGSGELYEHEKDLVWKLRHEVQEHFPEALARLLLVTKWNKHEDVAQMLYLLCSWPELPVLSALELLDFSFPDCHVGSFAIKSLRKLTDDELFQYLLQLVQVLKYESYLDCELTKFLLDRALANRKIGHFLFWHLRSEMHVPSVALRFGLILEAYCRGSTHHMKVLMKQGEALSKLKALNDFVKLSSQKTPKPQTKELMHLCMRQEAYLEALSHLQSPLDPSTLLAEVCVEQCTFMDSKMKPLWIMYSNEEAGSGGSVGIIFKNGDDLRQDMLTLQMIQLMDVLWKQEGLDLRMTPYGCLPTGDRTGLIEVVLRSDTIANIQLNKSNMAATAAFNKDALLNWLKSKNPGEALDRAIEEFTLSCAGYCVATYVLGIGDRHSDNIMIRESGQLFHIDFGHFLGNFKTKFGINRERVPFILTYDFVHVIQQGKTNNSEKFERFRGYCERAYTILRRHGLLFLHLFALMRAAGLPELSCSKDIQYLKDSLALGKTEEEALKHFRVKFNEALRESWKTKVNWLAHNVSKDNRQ
In words: Inhibition of PI3Kdelta (unknown origin) using L-alpha-phosphatidylinositol as substrate incubated for 60 mins in presence of ATP by Kinase Glo luminescence assay.

Data set [14] deals with HeLa. Kind of data set: Induction of apoptosis in human HeLa cells assessed as viable cells at 0.625 uM incubated for 36 hrs by Annexin V-FITC/PI staining based flow cytometric analysis (reference value: 96.14 %). Conditions: read-out: Activity. Format: functional.
The test system of data set [15] is HeLa. In words: Induction of apoptosis in human HeLa cells assessed as dead cells at 2.5 uM incubated for 36 hrs by Annexin V-FITC/PI staining based flow cytometric analysis (reference value: 0.44 %). The format is functional.
For data set [16], the system named is HeLa. In words: Induction of apoptosis in human HeLa cells assessed as early apoptotic cells at 2.5 uM incubated for 36 hrs by Annexin V-FITC/PI staining based flow cytometric analysis (reference value: 2.02 %). Format: functional.
Data set [17] concerns HeLa. Kind of data set: Induction of apoptosis in human HeLa cells assessed as viable cells at 2.5 uM incubated for 36 hrs by Annexin V-FITC/PI staining based flow cytometric analysis (reference value: 96.14 %). The format is functional. Conditions: read-out: Activity.
Data set [18] addresses DNA-dependent protein kinase catalytic subunit (Homo sapiens) (UniProt P78527). Kind of data set: Inhibition of DNA-PK (unknown origin) at 1 uM.

Sequence of Phosphatidylinositol 4,5-bisphosphate 3-kinase catalytic subunit gamma isoform (P48736 whole entry, canonical isoform): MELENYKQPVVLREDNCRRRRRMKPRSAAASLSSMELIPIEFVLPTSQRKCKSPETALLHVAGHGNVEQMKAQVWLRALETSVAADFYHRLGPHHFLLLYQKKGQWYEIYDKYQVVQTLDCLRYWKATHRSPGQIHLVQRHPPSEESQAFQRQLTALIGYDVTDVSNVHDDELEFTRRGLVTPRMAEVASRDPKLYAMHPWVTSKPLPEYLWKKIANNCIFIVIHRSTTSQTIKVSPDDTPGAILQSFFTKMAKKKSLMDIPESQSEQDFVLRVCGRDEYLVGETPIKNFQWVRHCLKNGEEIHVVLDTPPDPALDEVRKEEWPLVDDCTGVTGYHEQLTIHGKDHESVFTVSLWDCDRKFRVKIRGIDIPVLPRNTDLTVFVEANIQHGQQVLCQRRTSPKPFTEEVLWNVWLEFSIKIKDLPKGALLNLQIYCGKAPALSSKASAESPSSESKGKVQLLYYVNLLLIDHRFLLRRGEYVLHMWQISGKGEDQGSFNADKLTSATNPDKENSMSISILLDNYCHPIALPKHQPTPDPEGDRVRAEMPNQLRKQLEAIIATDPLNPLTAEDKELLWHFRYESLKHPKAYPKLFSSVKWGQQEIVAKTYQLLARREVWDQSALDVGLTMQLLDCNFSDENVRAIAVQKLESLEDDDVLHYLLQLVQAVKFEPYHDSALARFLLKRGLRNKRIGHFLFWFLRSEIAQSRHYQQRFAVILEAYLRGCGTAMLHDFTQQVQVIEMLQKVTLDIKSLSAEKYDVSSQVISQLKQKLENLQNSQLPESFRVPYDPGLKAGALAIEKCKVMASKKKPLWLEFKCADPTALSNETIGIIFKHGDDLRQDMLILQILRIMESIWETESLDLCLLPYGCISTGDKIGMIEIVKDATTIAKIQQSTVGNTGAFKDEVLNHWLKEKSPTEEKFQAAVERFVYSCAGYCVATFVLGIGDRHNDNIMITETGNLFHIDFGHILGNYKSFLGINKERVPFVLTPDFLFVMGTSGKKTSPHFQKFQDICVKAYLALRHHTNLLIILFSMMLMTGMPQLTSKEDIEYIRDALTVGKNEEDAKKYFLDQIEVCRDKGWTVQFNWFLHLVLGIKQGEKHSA

Take `Cc1nc2cnc3ccc(-c4cnc5[nH]ccc5c4)cc3c2n1-c1ccc(C(C)(C)C#N)nc1`: in the data set on HeLa [1], the inhibition in vivo at 60 mg/kg was determined as 80.2%. The inhibition in vivo at 30 mg/kg with HeLa [2] came out at 73.5%. In addition, the viability at 0.1562 µM with HeLa [3] amounted to 93.5%. This compound displayed an area under the curve (AUC) in data set [4] of 7620 ng·h/mL. Also, the inhibition result (with Mus musculus; in data set [18]) was “Active” throughout. Moreover, the Activity entry was “Non-Toxic” in data set [5]; “Non-Toxic” with L02; 18.32% in the data set with HeLa [8]; 1.92% in the data set on HeLa [9]; 2.75% in the data set with HeLa [11]; 6.13% in the data set with HeLa [15]. For the same compound, in the data set with HeLa [16], the Activity was found to be 27.18%. In addition, the inhibition in vivo at 15 mg/kg in the data set on SW-620 is 60.6%. In data set [6], this compound yielded a bioavailability of 76.8%. The IC50 in data set [7] was found to be 79.3 nM; in data set [13], 7 nM. The inhibition result with HeLa [10] and with HeLa [12] was “Dde” throughout. Also, the viability at 0.625 µM in the data set on HeLa [14] was found to be 70.1%. Also, the viability at 2.5 µM with HeLa [17] stood at 27.8%.
